Reference: patent US10123985B2, “Therapeutic strategies for treating mitochondrial disorders” (Whitehead Institute for Biomedical Research, priority 2015, dated 2018)
“Also recorded” adds a separate entry of the source.

Assays:
[1] = system: lactate dehydrogenase (LDH); assay: Lactate dehydrogenase assay (disappearance of NADH absorbance); assay type: biochemical; settings: 1 mM α-ketobutyrate, 180 μM NADH, absorbance at 340 nm
Procedure: Immediately prior to the start of the assay 100 μL of a reaction buffer containing 50 mM HEPES-KOH pH 7.5, 20 mM KCl, 2 mM MgCl2, 1 mM DTT, 180 μM NADH, 1 mM α-ketobutyrate (where applicable) was combined with LDH (where applicable) in 96-well plates. Lactate dehydrogenase activity was assayed by monitoring disappearance of NADH absorbance at 340 nm over time.

[2] = system: 143B cells; assay: Amino acid and TCA cycle metabolite GC-MS analysis, 143B cells; assay type: cell-based
Procedure: 143B and 143B CytB cells were seeded at 400,000 cells/well in 6 well dishes overnight. The following day, cells were washed 2 times in PBS and media was changed to proliferation assay media with or without the indicated treatments. […] Soluble content was then dried under nitrogen gas. Polar samples were derivatized and measured as detailed in (Lewis). Relative metabolite abundances were determined by integrating ion peak area (Metran) and normalized to norvaline internal extraction standard.

[3] = system: Jurkat cells; assay: NAD+ and NADH measurements in Jurkat cells; assay type: cell-based, human; settings: wild type Jurkat cells, phenformin (10 μM), aspartate (10 mM)
Procedure: Measurement of NAD^+/NADH was done by modification of manufacturer instructions for NAD^+/NADH Glo Assay (Promega). Jurkat cells were incubated in RPMI under the conditions listed for 8 hours before cell extracts were taken. To extract NAD^+/NADH, cells were centrifuged for 1 minute at 300×g, and washed 3 times by quickly resuspending in 15 mL PBS and centrifuging for 1 minute at 300×g. Pelleted samples were extracted in 100 μL ice cold lysis buffer (1% Dodecyltrimethylammonium bromide (DTAB) in 0.2 N NaOH diluted 1:1 with PBS) and frozen at −80° C. To measure NADH, 20 μL of extracts were heated to 75° C. for 30 min in the basic lysis buffer to degrade NAD^+. To measure NAD^+, samples were diluted 1:1 with 0.4 N HCl and incubated at 60° C. for 15 min where acidic conditions will degrade NADH. Following incubations, samples were quenched by adding 20 μL of 0.25 M Tris, 0.2 N HCl (NADH) or 20 μL of 0.5 M Tris base (NAD^+). Manufacturer instructions were then followed to measure NAD^+/NADH.

[4] = system: ETC-defective cybrid cells; assay: [U-13C]-L-glutamine isotope tracing of aspartate in cybrid cells; assay type: cell-based; settings: [U-13C]-L-glutamine 7 hours, pyruvate (1 mM)
Procedure: FIG. 19. […] Cell line models of ETC dysfunction were cultured in RPMI (supplemented with uridine) with pyruvate (1 mM) or aspartate (10 mM) for 6 days. Relative cell number was determined by normalizing to the pyruvate-supplemented condition. Representative bright-field micrographs of MERRF, CYTB, and 143B ρ0 cells after 6 days in indicated conditions (right) (mean±SD, n=3, **p<0.05). […] Mass isotopomer analysis of aspartate in wild type, phenformin-treated wild type, and ETC-defective cybrid cells cultured for 7 hours with [U-^13C]-L-glutamine (middle) in the presence or absence of pyruvate (1 mM). The fraction of labeled aspartate from [U-^13C]-L-glutamine is indicated (mean±SD, for n=3, **p<0.05) (bottom). OAA, oxaloacetate. […] Immunoblot analysis of wild type, MERRF, and CYTB cybrid cells expressing sgControl and sgGOT1 (top). Raptor was used as a loading control. […] Relative cell number was determined by normalizing to sgControl expressing cell line (mean±SD, for n=3, **p<0.05). […]
Polar metabolites were extracted using 1 ml of ice-cold 80% methanol with 10 ng/ml valine-d8 as an internal standard. […] Relative quantitation of polar metabolites was performed with XCalibur QuanBrowser 2.2 (Thermo Fisher Scientific) using a 5 ppm mass tolerance and referencing an in-house library of chemical standards.

[5] = system: Jurkat cells; assay: Metabolite profiling (LC/MS) of Jurkat cells; assay type: cell-based, human; settings: pyruvate 1 mM
Procedure: LC/MS analyses were conducted on a QExactive benchtop orbitrap mass spectrometer equipped with an Ion Max source and a HESI II probe, which was coupled to a Dionex UltiMate 3000 UPLC system (Thermo Fisher Scientific, San Jose, Calif.). External mass calibration was performed using the standard calibration mixture every 7 days.
Polar metabolites were extracted using 1 ml of ice-cold 80% methanol with 10 ng/ml valine-d8 as an internal standard. After a 10 min vortex and centrifugation for 10 min at 4° C. at 10,000 g, samples were dried under nitrogen gas. Dried samples were stored at −80° C. and then resuspended in 100 μL water; 1 μl of each sample was injected onto a ZIC-pHILIC 2.1×150 mm (5 μm particle size) column (EMD Millipore). Buffer A was 20 mM ammonium carbonate, 0.1% ammonium hydroxide; buffer B was acetonitrile. The chromatographic gradient was run at a flow rate of 0.150 ml/min as follows: 0-20 min.: linear gradient from 80% to 20% B; 20-20.5 min.: linear gradient from 20% to 80% B; 20.5-28 min.: hold at 80% B. The mass spectrometer was operated in fullscan, polarity switching mode with the spray voltage set to 3.0 kV, the heated capillary held at 275° C., and the HESI probe held at 350° C. The sheath gas flow was set to 40 units, the auxiliary gas flow was set to 15 units, and the sweep gas flow was set to 1 unit. The MS data acquisition was performed in a range of 70-1000 m/z, with the resolution set at 70,000, the AGC target at 106, and the maximum injection time at 80 msec. Relative quantitation of polar metabolites was performed with XCalibur QuanBrowser 2.2 (Thermo Fisher Scientific) using a 5 ppm mass tolerance and referencing an in-house library of chemical standards.

With `CCC(=O)C(=O)O` [AKB, α-ketobutyrate] the “Regeneration of NAD+ from NADH by LDH” value [1] was “capable of regenerating NAD^+ from NADH”, the “Aspartate level with AKB treatment” value ([2]; 143B CytB cells and inhibitor-treated 143B cells, relative to untreated cells) was “restored aspartate to levels comparable to, or higher than, untreated cells” and the Intracellular aspartate levels ([2]; rotenone treated 143B cells, 24 hours, AKB or 1 mM asparagine) was “increased intracellular aspartate”.

`N[C@@H](CC(=O)O)C(=O)O` [aspartate] was tested, and the “NAD+/NADH ratio in cells with ETC inhibition” value [3] was “did not restore the NAD/NADH ratio in cells with ETC inhibition; also recorded: does not increase the NAD^+/NADH ratio in cells with ETC inhibition”.

`CC(=O)C(=O)O` [pyruvate] was tested, and the “Aspartate synthesis in ETC-defective cybrid cells” value [4] was “stimulated aspartate synthesis in the ETC-defective cells; also recorded: stimulates aspartate biosynthesis in cybrid cells with ETC dysfunction”, the “Aspartate synthesis with pyruvate” value ([5]; MDH1-null Jurkat cells treated with ETC inhibitors) was “did not stimulate aspartate synthesis; also recorded: depends on MDH1” and the “Aspartate levels with pyruvate” value ([5]; phenformin-treated (10 μM, 24 hours) GOT1-null Jurkat cells) was “no effect on aspartate”. The “Aspartate levels with pyruvate” value ([5]; phenformin-treated (10 μM, 24 hours) wild type Jurkat cells) was “increases cellular aspartate levels in a GOT1-dependent manner; also recorded: restored aspartate levels to normal in phenformin-treated wild type cells”.
